Experimental findings from patent US20080108600A1, “Polycyclic Pyridines as Potassium Ion Channel Modulators” (Icagen, Inc., priority 2004, published 2008) are described below.

Each structure is given as a SMILES string.

Assay [1] relates to learning and memory formation for a passive avoidance task in mice following electroconvulsive shock. In words: Electroconvulsive shock-passive avoidance model. Particulars: Mus musculus, ip, passive avoidance after electroconvulsive shock, read-out: In Vivo Inhibitory Activity (minimum effective dose, (MED)). The text has this:
25.1 Assay for Compound Activity in an Electroconvulsive Shock-Passive/Avoidance Model
The effects of compounds of the invention were studied on learning and memory formation for a passive avoidance task in mice following electroconvulsive shock training utilizing a modification of the protocol described by Inan, et al., Eur. J. Pharmacol., (2000), 407(1-2): 159-64.

A further assay deals with hSK2 (Homo sapiens, UniProt Q9H2S1). Briefly: 86Rb+ efflux assay for compound activity towards hSK channels. In kind it is cell-based. The conditions noted are these: 86Rb+ efflux stimulated with calcium ionophore; drug 0.01 to 30 μM; read-out: hSK2 Inhibitory Activity. On the procedure:
24.1 Assay for Compound Activity Towards hSK Channels
Cells expressing small conductance, calcium activated potassium channels, such as SK-like channels were loaded with ^86Rb^+ by culture in media containing ^86RbCl. Following loading, the culture media was removed and the cells were washed in EBSS to remove residual traces of ^86Rb^+. Cells were preincubated with the drug (0.01 to 30 μM in EBSS) and then ^86Rb^+ efflux was stimulated by exposing cells to EBSS solution supplemented with a calcium ionophore, such as ionomycin, in the continued presence of the drug. After a suitable efflux period, the EBSS/ionophore solution was removed from the cells and the ^86Rb^+ content was determined by Cherenkov counting (Wallac Trilux). Cells were then lysed with a SDS solution and the ^86Rb^+ content of the lysate was determined. Percent ^86Rb^+ efflux was calculated according to the following equation:
(^86Rb^+ content in EBSS/(86Rb^+ content in EBSS+^86Rb^+ content of the lysate))×100

On to `CN1CCC(=O)N(c2ccc(Nc3cccc(-c4nccs4)n3)nc2)CC1` [1-Methyl-4-[6-(6-thiazol-2-yl-pyridin-2-ylamino)-pyridin-3-yl]-[1,4]diazepan-5-one], for which, in assay [1], the minimal effective dose was less than 2 mg/kg. Besides, the IC50 on hSK2 lay within 100 to 500 nM. Regarding `COc1ccc(-c2nccs2)nc1Nc1ccc(N2CCCC2=O)cn1` [1-[6-(3-Methoxy-6-thiazol-2-yl-pyridin-2-ylamino)-pyridin-3-yl]-pyrrolidin-2-one], the minimal effective dose in assay [1] was less than 2 mg/kg. The IC50 on hSK2 was less than 100 nM. The matching figures for `O=C1CNCCN1c1ccc(Nc2cccc(-c3nccs3)n2)nc1` [1-[6-(6-Thiazol-2-yl-pyridin-2-ylamino)-pyridin-3-yl]-piperazin-2-one]: less than 2 mg/kg and 100 to 500 nM. In the same order, the values of `O=C1CCCN1c1ccc(Nc2cccc(-c3ncc(Cl)s3)n2)nc1` [1-{6-[6-(5-Chloro-thiazol-2-yl)-pyridin-2-ylamino]-pyridin-3-yl}-pyrrolidin-2-one] are less than 2 mg/kg and less than 100 nM.

For the compound `CN1CCN(c2ccc(Nc3cccc(-c4nccs4)n3)nc2)C(=O)C1` [4-Methyl-1-[6-(6-thiazol-2-yl-pyridin-2-ylamino)-pyridin-3-yl]-piperazin-2-one], in assay [1], the minimal effective dose is less than 2 mg/kg. For the same compound, the IC50 at hSK2 lay in the range of 100 to 500 nM.

In the case of `COc1ccc(-c2nccs2)nc1Nc1ccc(N2CCCCC2)cn1` [(3-Methoxy-6-thiazol-2-yl-pyridin-2-yl)-(3,4,5,6-tetrahydro-2H-[1,3′]bipyridinyl-6′-yl)-amine], the minimal effective dose in assay [1] is less than 2 mg/kg. Moreover, the IC50 at hSK2 is less than 100 nM. Regarding `COc1ccc(-c2nccs2)nc1Nc1ccc(N2CCOCC2)cn1` [(3-Methoxy-6-thiazol-2-yl-pyridin-2-yl)-(5-morpholin-4-yl-pyridin-2-yl)-amine], the minimal effective dose in assay [1] was less than 2 mg/kg. Moreover, the IC50 at hSK2 was less than 100 nM. Consider `COc1ccc(-c2nccs2)nc1Nc1ccc(N2CCCC2)cn1` [(3-Methoxy-6-thiazol-2-yl-pyridin-2-yl)-(5-pyrrolidin-1-yl-pyridin-2-yl)-amine], for which the minimal effective dose in assay [1] is less than 2 mg/kg. In addition, on hSK2, the IC50 was less than 100 nM. In the same order, the values of `COc1ccc(-c2nccs2)nc1Nc1ccc(N2CCN(C)CC2)cn1` [(3-Methoxy-6-thiazol-2-yl-pyridin-2-yl)-[5-(4-methyl-piperazin-1-yl)-pyridin-2-yl]-amine] are less than 2 mg/kg and less than 100 nM. In the same order, the values of `c1cc(Nc2cc3c(cn2)CCCC3)nc(-c2nccs2)c1` [(5,6,7,8-Tetrahydro-isoquinolin-3-yl)-(6-thiazol-2-yl-pyridin-2-yl)-amine] are less than 2 mg/kg and less than 100 nM. For `COCCN(C)c1ccc(Nc2cccc(-c3ncc(Cl)s3)n2)nc1` [N^2-[6-(5-Chloro-thiazol-2-yl)-pyridin-2-yl]-N^5-(2-methoxy-ethyl)-N^5-methyl-pyridine-2,5-diamine], the IC50 at hSK2 is less than 100 nM.

Regarding `COc1ccc(-c2nccs2)nc1Nc1ccc(NC2CN3CCC2CC3)cn1` (centres unmarked) [N^5-(1-Aza-bicyclo[2.2.2]oct-3-yl)-N^2-(3-methoxy-6-thiazol-2-yl-pyridin-2-yl)-pyridine-2,5-diamine], the IC50 on hSK2 was 100 to 500 nM. Take `COc1ccc(-c2nccs2)nc1Nc1ccc(-c2ccccn2)cn1` [[2,3′]Bipyridinyl-6′-yl-(3-methoxy-6-thiazol-2-yl-pyridin-2-yl)-amine]: the IC50 on hSK2 is less than 100 nM. Turning to `c1cncc(-c2ccc(Nc3cccc(-c4cnccn4)n3)nc2)c1` [[3,3′]Bipyridinyl-6-yl-(6-pyrazin-2-yl-pyridin-2-yl)-amine], the IC50 on hSK2 was less than 100 nM.

On to `c1cc(Nc2ccc(CN3Cc4ccccc4C3)cn2)nc(-c2nccs2)c1` [[5-(1,3-Dihydro-isoindol-2-ylmethyl)-pyridin-2-yl]-(6-thiazol-2-yl-pyridin-2-yl)-amine], for which the minimal effective dose in assay [1] was less than 2 mg/kg. Regarding `COc1ccccc1-c1ccc(Nc2cccc(-n3cc(C)cn3)n2)nc1` [[5-(2-Methoxy-phenyl)-pyridin-2-yl]-[6-(4-methyl-pyrazol-1-yl)-pyridin-2-yl]-amine], the IC50 at hSK2 is less than 100 nM. The same measure, in the same setting: in the case of `c1cc(Nc2ccc(CN3CCc4ccccc4C3)cn2)nc(-c2nccs2)c1` [[5-(3,4-Dihydro-1H-isoquinolin-2-ylmethyl)-pyridin-2-yl]-(6-thiazol-2-yl-pyridin-2-yl)-amine] it was less than 100 nM; in that of `CN1CCN(c2ccc(Nc3cccc(-n4cccn4)n3)nc2)CC1` [[5-(4-Methyl-piperazin-1-yl)-pyridin-2-yl]-(6-pyrazol-1-yl-pyridin-2-yl)-amine], 500 to 1000 nM.

On to `Cc1ccc(-c2ccc(Nc3cccc(-c4nccs4)n3)nc2)o1` [[5-(5-Methyl-furan-2-yl)-pyridin-2-yl]-(6-thiazol-2-yl-pyridin-2-yl)-amine], for which the IC50 at hSK2 was less than 100 nM.

With `Cc1cnn(-c2cccc(Nc3ccc(N4CCC(C)CC4)cn3)n2)c1` [[6-(4-Methyl-pyrazol-1-yl)-pyridin-2-yl]-(4-methyl-3,4,5,6-tetrahydro-2H-[1,3′]bipyridinyl-6′-yl)-amine], on hSK2, the IC50 is 100 to 500 nM. On to `COc1ccc(-c2ncc(Cl)s2)nc1Nc1ccc(N2CCCCC2)cn1` [[6-(5-Chloro-thiazol-2-yl)-3-methoxy-pyridin-2-yl]-(3,4,5,6-tetrahydro-2H-[1,3′]bipyridinyl-6′-yl)-amine], for which the IC50 on hSK2 lay in the range of 100 to 500 nM. The same measure, in the same setting: then `COc1ccc(-c2ncc(Cl)s2)nc1Nc1ccc(N2CCC(OC)CC2)cn1` [[6-(5-Chloro-thiazol-2-yl)-3-methoxy-pyridin-2-yl]-(4-methoxy-3,4,5,6-tetrahydro-2H-[1,3′]bipyridinyl-6′-yl)-amine], with less than 100 nM. Same read-out and setting: then `COc1ccc(-c2ncc(Cl)s2)nc1Nc1ccc(N2CCOCC2)cn1` [[6-(5-Chloro-thiazol-2-yl)-3-methoxy-pyridin-2-yl]-(5-morpholin-4-yl-pyridin-2-yl)-amine], with less than 100 nM; and `COc1ccc(-c2ncc(Cl)s2)nc1Nc1ccccn1` [[6-(5-Chloro-thiazol-2-yl)-3-methoxy-pyridin-2-yl]-pyridin-2-yl-amine], with less than 100 nM; and `Clc1cnc(-c2cccc(Nc3ccc(N4CCOCC4)cn3)n2)s1` [[6-(5-Chloro-thiazol-2-yl)-pyridin-2-yl]-(5-morpholin-4-yl-pyridin-2-yl)-amine], with less than 100 nM.

Regarding `Clc1cnc(-c2cccc(Nc3ccc(N4CCCC4)cn3)n2)s1` [[6-(5-Chloro-thiazol-2-yl)-pyridin-2-yl]-(5-pyrrolidin-1-yl-pyridin-2-yl)-amine], the IC50 on hSK2 was less than 100 nM. On the same count and under the same terms, then `Clc1cnc(-c2cccc(Nc3ccccn3)n2)s1` [[6-(5-Chloro-thiazol-2-yl)-pyridin-2-yl]-pyridin-2-yl-amine], with less than 100 nM; and `CCc1cnc(-c2cccc(Nc3ccccn3)n2)s1` [[6-(5-Ethyl-thiazol-2-yl)-pyridin-2-yl]-pyridin-2-yl-amine], with less than 100 nM. Same read-out and setting: in the case of `CC(C)c1cnc(-c2cccc(Nc3ccccn3)n2)s1` [[6-(5-Isopropyl-thiazol-2-yl)-pyridin-2-yl]-pyridin-2-yl-amine] it was less than 100 nM. With `Cc1cnc(-c2cccc(Nc3ccc(N4CCCCC4)cn3)n2)s1` [[6-(5-Methyl-thiazol-2-yl)-pyridin-2-yl]-(3,4,5,6-tetrahydro-2H-[1,3′]bipyridinyl-6′-yl)-amine], the IC50 at hSK2 was in the range of 100 to 500 nM. On the same count and under the same terms, then `Cc1cnc(-c2cccc(Nc3ccccn3)n2)s1` [[6-(5-Methyl-thiazol-2-yl)-pyridin-2-yl]-pyridin-2-yl-amine], with less than 100 nM.
